Assay results as given in patent US20250154163A1, “Pyrimidinone-Containing 17-Beta-Hydroxysteroid Dehydrogenase Type 13 Inhibitors” (ENANTA PHARMACEUTICALS, INC., priority 2023, published 2025).
pIC50: −log10 of the molar value.

Key:
[1] = biological target: T1, Recombinant human 17β-HSD13 (Homo sapiens, UniProt Q7Z5P4); experiment: 17β-HSD13 rapid-fire mass spectrometry assay (RF/MS assay); type: biochemical; details: inhibition of 17β-HSD13, RF/MS assay; HSD17B13 80 nM, LTB4 10 μM, NAD+ 0.5 mM, RT 3 h
T1 construct: host or cells: Sf9 insect cells
T1 sequence (Q7Z5P4 20-300): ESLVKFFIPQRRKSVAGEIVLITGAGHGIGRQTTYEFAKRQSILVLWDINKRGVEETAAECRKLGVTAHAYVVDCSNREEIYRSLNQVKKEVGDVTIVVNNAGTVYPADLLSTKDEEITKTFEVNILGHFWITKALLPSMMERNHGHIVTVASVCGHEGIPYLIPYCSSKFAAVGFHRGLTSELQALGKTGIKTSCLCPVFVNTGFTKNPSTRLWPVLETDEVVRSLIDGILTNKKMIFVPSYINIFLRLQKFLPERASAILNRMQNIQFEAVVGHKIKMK
Excerpt: 17(3-HSD13 rapid-fire mass spectrometry assay (RF/MS assay). Recombinant human 17β-HSD13 was expressed and purified from sf9 cells at Charles River Labs (Saffron Walden, UK). Leukotriene B4 (Catalog #71160-24-2) and 12-oxoleukotriene B4 (Catalog #20140) were purchased from Cayman Chemicals (Ann Arbor, MI). NAD+ (Catalog #N8285), BSA (Catalog #A7030), DMSO (Catalog #D2650), and Tween-20 (Catalog #11332465001) were purchased from Sigma (St. Louis, MO). Formic acid (Catalog #28905) was from ThermoFisher Scientific and 384 deep well PP microplates (Catalog #784261) were from Greiner Bio-One. In a typical IC50 assay performed in a 384w PP microplate, test compounds (0-100 μM) were incubated with HSD17B13 (80 nM), LTB4 (10 μM), and NAD^+ (0.5 mM) in 10 μL assay buffer (20 mM Tris (pH 7.5), BSA (0.005%), and Tween-20 (0.01%)) at RT for 3 h. The assays were quenched by adding 20 μL of 0.15% aqueous formic acid and the plates were frozen at −80° C. RF/MS analysis was performed at PureHoney Technologies (Billerica, MA) on a RapidFire RF300 system (Agilent Technologies, Inc.) coupled to an API 4000 triple quadrupole mass spectrometer (Sciex) equipped with Agilent RapidFire cartridge type A (C4). The mobile phase was 0.09% formic acid and 0.01% trifluoracetic acid in water (Buffer A) and 0.09% formic acid and 0.01% trifluoracetic acid in 80% aqueous acetonitrile (Buffer B). The RapidFire method conditions were the following: 250 ms aspirate, 3000 ms load/desalt, 4000 ms elute, and 500 ms re-equilibrate. RF-MS/MS was performed in negative polarity (−4500 V), the source temperature was 650° C., and gas 1 and gas 2 settings for nitrogen were set to 50. The curtain gas and collision gas were also nitrogen and were set to 20 and 12, respectively. Leukotriene B4 (335.3) and 12-oxoLeukotriene B4 (333.3) SRM transitions were optimized with Discovery Quant software and extracted ion counts for these analytes were determined.
Data Analysis. 17β-HSD13 enzyme activity was measured as percent conversion of extracted ion counts and normalized to high and low controls to determine percent residual activity at various concentrations of test compounds. Data was fitted to normalized activity (variable slope) versus concentration fit in GraphPad Prism 7 to determine IC50. All experiments were run in duplicates.
By using the above method, the inhibition of 17β-HSD13 was evaluated for the compounds of Formula (I). IC50 ranges are as follows: A is <0.1 μM; B is 0.1 μM-1.0 μM; C is 1.0 μM-10 μm; and D is >10 μM.

[2] = biological target: T2, human HSD17β13 (stable HEK293T cell line overexpressing human HSD17β13) (Homo sapiens, UniProt Q7Z5P4); experiment: HSD17β13 inhibitor cell-based screening assay (conversion of estradiol-d2 to estrone-d2 by RF-MS); details: conversion of estradiol-d2 to estrone-d2 after 24 hours
T2 construct: expressed in transfected cells
T2 sequence (Q7Z5P4 20-300): T1 sequence (Q7Z5P4 20-300)
In short: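 Cellular IC50 is based on 24-h conversion of estradiol-d2 (5 μM final) to estrone-d2, measured by RF-MS in acetonitrile-precipitated supernatants. Assay uses human HSD17β13-overexpressing HEK293T cells (7.5E3/well, 1% charcoal/dextran FBS MEM), with compounds dosed as a 9-point 1:3 series to 10 μM final. ATPlite luminescence on overexpressing and parent lines measured viability.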

| Compound | pIC50 [1] | pIC50 [2] |
| --- | --- | --- |
| COc1cc(C2CC2)c(-c2nc3sc4c(O)c(Cl)ccc4c3c(=O)n2Cc2cnco2)cc1F [Example 76, 7-chloro-2-(2-cyclopropyl-5-fluoro-4-methoxyphenyl)-8-hydroxy-3-(oxazol-5-ylmethyl)benzo[4,5]thieno[2,3-d]pyrimidin-4(3H)-one] | > 7.00 | > 7.00 |
| COC(=O)Cn1c(-c2ccc(OC)cc2C2CC2)nc2sc3c(O)c(Cl)ccc3c2c1=O [Example 45, methyl 2-(7-chloro-2-(2-cyclopropyl-4-methoxyphenyl)-8-hydroxy-4-oxobenzo[4,5]thieno[2,3-d]pyrimidin-3(4H)-yl)acetate] | – | 6.30 to 7.00 |
| N#Cc1ncc(Cn2c(-c3cc(F)c(F)cc3C3CC3)nc3sc4c(O)c(Cl)ccc4c3c2=O)s1 [Example 210] | – | > 7.00 |
| N#Cc1ccc(-c2nc3sc4c(O)c(Cl)ccc4c3c(=O)n2Cc2cccnc2)c(C2CC2)c1 [Example 170] | – | > 7.00 |
| N#Cc1ccc(-c2nc3sc4c(O)c(Cl)ccc4c3c(=O)n2Cc2cnco2)c(C2CC2)c1 [Example 111, 4-(7-chloro-8-hydroxy-3-(oxazol-5-ylmethyl)-4-oxo-3,4-dihydrobenzo[4,5]thieno[2,3-d]pyrimidin-2-yl)-3-cyclopropylbenzonitrile] | – | > 7.00 |
| N#Cc1ccc(-c2nc3sc4c(O)c(Cl)ccc4c3c(=O)n2Cc2ccc(C(F)(F)F)nc2)c(C2CC2)c1 [Example 113, 4-(7-chloro-8-hydroxy-4-oxo-3-((6-(trifluoromethyl)pyridin-3-yl)methyl)-3,4-dihydrobenzo[4,5]thieno[2,3-d]pyrimidin-2-yl)-3-cyclopropylbenzonitrile] | – | > 7.00 |
| O=c1c2c(nc(-c3cc(F)c(C(F)F)cc3C3CC3)n1Cc1cnco1)sc1c(O)c(Cl)ccc12 [Example 141] | – | > 7.00 |
| COc1ccc(-c2nc3sc4c(O)c(Cl)ccc4c3c(=O)n2CCc2cnco2)c(C2CC2)c1 [Example 188, 7-chloro-2-(2-cyclopropyl-4-methoxyphenyl)-8-hydroxy-3-(2-(oxazol-5-yl)ethyl)benzo[4,5]thieno[2,3-d]pyrimidin-4(3H)-one] | – | 6.30 to 7.00 |
| O=c1c2c(nc(-c3cnc(C(F)(F)F)cc3C3CC3)n1Cc1ccc(C(F)(F)F)nc1)sc1c(O)c(Cl)ccc12 [Example 179] | – | > 7.00 |
| O=c1c2c(nc(-c3cc(F)c(F)cc3C3CC3)n1Cc1cc(Br)no1)sc1c(O)c(Cl)ccc12 [Example 165] | – | > 7.00 |
| COCCn1cc(Cn2c(-c3ccc(OC)cc3C3CC3)nc3sc4c(O)c(Cl)ccc4c3c2=O)cn1 [Example 95] | – | > 7.00 |
| O=c1c2c(nc(-c3ncc(F)cc3C3CC3)n1Cc1cnc(C(F)(F)F)nc1)sc1c(O)c(Cl)ccc12 [Example 101] | – | > 7.00 |
| N#Cc1ccc(-c2nc3sc4c(O)c(Cl)ccc4c3c(=O)n2Cc2cc(C(F)(F)F)no2)c(C2CC2)c1 [Example 98] | – | > 7.00 |
| N#Cc1ccc(-c2nc3sc4c(O)c(Cl)ccc4c3c(=O)n2Cc2cnc(C(F)(F)F)nc2)c(C2CC2)c1 [Example 114] | – | > 7.00 |
| O=c1c2c(nc(-c3cc(F)c(F)cc3C3CC3)n1Cc1ccns1)sc1c(O)c(Cl)ccc12 [Example 212] | – | > 7.00 |
| COc1ccc(-c2nc3sc4c(O)c(Cl)ccc4c3c(=O)n2Cc2cnco2)c(C)c1 [Example 124] | – | 6.30 to 7.00 |
| O=c1c2c(nc(-c3ncc(C(F)(F)F)cc3C3CC3)n1Cc1cnco1)sc1c(O)c(Cl)ccc12 [Example 90] | – | > 7.00 |
| Cc1ncc(Cn2c(-c3cc(F)c(F)cc3C3CC3)nc3sc4c(O)c(Cl)ccc4c3c2=O)o1 [Example 61, 7-chloro-2-(2-cyclopropyl-4,5-difluorophenyl)-8-hydroxy-3-((2-methyloxazol-5-yl)methyl)benzo[4,5]thieno[2,3-d]pyrimidin-4(3H)-one] | – | > 7.00 |
| COc1ccc(-c2nc3sc4c(O)c(Cl)cc(C)c4c3c(=O)n2Cc2cnco2)c(C2CC2)c1 [Example 221] | – | 6.30 to 7.00 |
| CS(=O)(=O)c1ccc(-c2nc3sc4c(O)c(Cl)ccc4c3c(=O)n2Cc2ccc(C(F)(F)F)nc2)c(C2CC2)c1 [Example 69, 7-chloro-2-(2-cyclopropyl-4-(methylsulfonyl)phenyl)-8-hydroxy-3-((6-(trifluoromethyl)pyridin-3-yl)methyl)benzo[4,5]thieno[2,3-d]pyrimidin-4(3H)-one] | – | > 7.00 |

Results, then the molecule that gave them:

| pIC50 [1] | pIC50 [2] | Compound |
| --- | --- | --- |
| > 7.00 | > 7.00 | COc1ccc(-c2nc3sc4c(O)c(Br)ccc4c3c(=O)n2Cc2cnco2)c(C2CC2)c1 [Example 24, 7-bromo-2-(2-cyclopropyl-4-methoxyphenyl)-8-hydroxy-3-(oxazol-5-ylmethyl)benzo[4,5]thieno[2,3-d]pyrimidin-4(3H)-one] |
| – | > 7.00 | O=c1c2c(nc(-c3ccc(C(F)(F)F)nc3C3CC3)n1Cc1ccc(C(F)(F)F)nc1)sc1c(O)c(Cl)ccc12 [Example 68, 7-chloro-2-(2-cyclopropyl-6-(trifluoromethyl)pyridin-3-yl)-8-hydroxy-3-((6-(trifluoromethyl)pyridin-3-yl)methyl)benzo[4,5]thieno[2,3-d]pyrimidin-4(3H)-one] |
| – | > 7.00 | COc1ccc(Cn2c(-c3cc(F)c(F)cc3C3CC3)nc3sc4c(O)c(Cl)ccc4c3c2=O)cn1 [Example 168] |
| – | > 7.00 | O=c1c2c(nc(-c3ccc(C(F)(F)F)nc3C3CC3)n1Cc1cnco1)sc1c(O)c(Cl)ccc12 [Example 92] |
| – | 4.00 to 6.00 | COc1ccc(-c2nc3sc4c(O)c(C(=O)O)ccc4c3c(=O)n2Cc2cnco2)c(C2CC2)c1 [Example 34, 2-(2-cyclopropyl-4-methoxyphenyl)-8-hydroxy-3-(oxazol-5-ylmethyl)-4-oxo-3,4-dihydrobenzo[4,5]thieno[2,3-d]pyrimidine-7-carboxylic acid] |
| – | > 7.00 | COc1ccc(-c2nc3sc4c(O)c(Cl)ccc4c3c(=O)n2Cc2cnco2)c(C2CC2)n1 [Example 93] |
| – | > 7.00 | O=c1c2c(nc(-c3cc(F)c(Cl)cc3C3CC3)n1Cc1cc(C(F)(F)F)no1)sc1c(O)c(Cl)ccc12 [Example 84] |
| – | > 7.00 | COc1ccc(-c2nc3sc4c(OC(C)=O)c(Cl)ccc4c3c(=O)n2Cc2cnco2)c(C2CC2)c1 [Example 27, 7-chloro-2-(2-cyclopropyl-4-methoxyphenyl)-3-(oxazol-5-ylmethyl)-4-oxo-3,4-dihydrobenzo[4,5]thieno[2,3-d]pyrimidin-8-yl acetate] |
| – | 4.00 to 6.00 | O=c1c2c(nc(-c3cc(F)c(F)cc3C3CC3)n1Cc1nn[nH]n1)sc1c(O)c(Cl)ccc12 [Example 213] |
| – | > 7.00 | COc1ccc(-c2nc3sc4c(O)c(F)cc(F)c4c3c(=O)n2Cc2cnco2)c(C2CC2)c1 [Example 223, 2-(2-cyclopropyl-4-methoxyphenyl)-5,7-difluoro-8-hydroxy-3-(oxazol-5-ylmethyl)benzo[4,5]thieno[2,3-d]pyrimidin-4(3H)-one] |
| – | > 7.00 | O=c1c2c(nc(-c3ccc(-c4ncco4)cc3C3CC3)n1Cc1cnco1)sc1c(O)c(Cl)ccc12 [Example 110, 7-chloro-2-(2-cyclopropyl-4-(oxazol-2-yl)phenyl)-8-hydroxy-3-(oxazol-5-ylmethyl)benzo[4,5]thieno[2,3-d]pyrimidin-4(3H)-one] |
| – | 6.00 to 6.30 | COc1ccc(-c2nc3sc4c(O)c(Cl)ccc4c3c(=O)n2Cc2cnco2)c(C(C)(C)C)c1 [Example 128] |
| – | > 7.00 | O=c1c2c(nc(-c3ncc(C(F)(F)F)cc3C3CC3)n1Cc1ccc(C(F)(F)F)nc1)sc1c(O)c(Cl)ccc12 [Example 100] |
